According to ChEMBL document CHEMBL1136538, “1,4-Dihydroxy-2,3-dioxatricyclo[8.4.0.0(4,9)]tetradecane and derivatives with in vitro activity against Plasmodium falciparum, Trypanasoma b brucei, Trypanasoma cruzi, and Leishmaniasis infantum” (Bioorg Med Chem Lett, 2003):

Columns and labels:
Trypanosoma brucei = experiment: In vitro anti-protozoal parasite activity against Trypanosoma brucei TB-1; type: functional, organism-based
Plasmodium falciparum = experiment: In vitro anti-protozoal activity against Plasmodium falciparum Ghana; type: functional, organism-based
MRC5 = experiment: In vitro cytotoxicity against cell line MRC-5; type: functional, cell-based; settings: Homo sapiens
Leishmania infantum = experiment: In vitro anti-protozoal parasite activity against Leishmania infantum L1 strain; type: functional, organism-based
Trypanosoma cruzi = experiment: In vitro anti-protozoal parasite activity against Trypanosoma cruzi TC-1; type: functional, organism-based

`OC12CCCCC1C1CCCCC1(O)OO2` (stereo unspecified) was tested, and the IC50 (Trypanosoma brucei) was 13 µM, the IC50 (Plasmodium falciparum) was 0.1 µM and the IC50 (MRC5) was 10 µM. The IC50 (Leishmania infantum) was greater than 32 µM and the IC50 (Trypanosoma cruzi) was 24 µM.

In the case of `COC12CCCCC1C1CCCCC1(O)OO2` (stereo unspecified), the IC50 (Trypanosoma brucei) is reported as 16 µM, the IC50 (Plasmodium falciparum) is reported as 5 µM and the IC50 (MRC5) is reported as 8 µM. It also gave an IC50 (Leishmania infantum) greater than 32 µM and an IC50 (Trypanosoma cruzi) of 8 µM.

`CC1CCCC2C3CCCC(C)C3(O)OOC12O` (stereo unspecified) showed an IC50 (Plasmodium falciparum) greater than 32 µM, an IC50 (MRC5) greater than 32 µM and an IC50 (Leishmania infantum) greater than 32 µM. For the same compound, the IC50 (Trypanosoma cruzi) was greater than 32 µM.

`O=C(O)CCC(=O)OC12CCCCC1C1CCCCC1(O)OO2` (stereo unspecified) gave an IC50 (Trypanosoma brucei) of 4 µM, an IC50 (Plasmodium falciparum) of 1 µM and an IC50 (MRC5) of 13 µM. For the same compound, the IC50 (Leishmania infantum) was greater than 32 µM and the IC50 (Trypanosoma cruzi) was 13 µM.

`O=C(O)CCCCC(=O)OC12CCCCC1C1CCCCC1(O)OO2` (stereo unspecified) gave an IC50 (Trypanosoma brucei) of 17 µM, an IC50 (Plasmodium falciparum) greater than 32 µM and an IC50 (MRC5) greater than 32 µM. The IC50 (Leishmania infantum) was greater than 32 µM and the IC50 (Trypanosoma cruzi) was 19 µM.

For `O=C(O)CC(=O)OC12CCCCC1C1CCCCC1(O)OO2` (stereo unspecified), the IC50 (Trypanosoma brucei) was 10 µM, the IC50 (Plasmodium falciparum) was 6 µM and the IC50 (MRC5) was greater than 32 µM. It also gave an IC50 (Leishmania infantum) greater than 32 µM and an IC50 (Trypanosoma cruzi) greater than 32 µM.

Compound `Cc1ccc(C(=O)Nc2ccc(S(=O)(=O)O)c3cc(S(=O)(=O)O)cc(S(=O)(=O)O)c23)cc1NC(=O)c1cccc(NC(=O)Nc2cccc(C(=O)Nc3cc(C(=O)Nc4ccc(S(=O)(=O)O)c5cc(S(=O)(=O)O)cc(S(=O)(=O)O)c45)ccc3C)c2)c1` [SURAMIN HEXASODIUM] has an IC50 (Trypanosoma brucei) of 0.043 µM.

`CO[C@H]1O[C@@H]2O[C@@]3(C)CC[C@H]4[C@H](C)CC[C@@H]([C@H]1C)[C@@]24OO3` [ARTEMETHER] was tested, and the IC50 (Plasmodium falciparum) was 0.025 µM.

For `O=C(O)CCCC(=O)OC12CCCCC1C1CCCCC1(O)OO2` (stereo unspecified), the IC50 (Trypanosoma brucei) was 16 µM, the IC50 (Plasmodium falciparum) was 19 µM and the IC50 (MRC5) was greater than 32 µM. It also gave an IC50 (Leishmania infantum) greater than 32 µM and an IC50 (Trypanosoma cruzi) of 15 µM.
